Reference: US20190216835A1 (priority 2016, published 2019)

Test system: Zika virus strain MR766
Type: cell-based
Conditions: for effect on replication of Zika virus (percent infected cells, FIG. 1): Vero cells infected 48 h with ZIKV MR766, MOI 0.3-0.5, compound added at time of infection, DMSO control
Procedure: FIG. 1 is a bar graph showing the results of experiments wherein Vero cells were infected for 48 h with Zika virus MR766 and stained for DNA and double stranded viral RNA. The indicated compounds at the indicated concentrations were added at the time of infection. Mean percent infected cells of n=3 experiments are shown +/−SD.
FIG. 2 is a set of images of Vero cells infected for 48 h with Zika virus MR766 and stained for DNA (blue) and double stranded viral RNA (green). Either Lanatoside 6 nM or DMSO (v/v) was added at the time of infection. Mean percent infected cells of n=3 experiments are shown +/−SD.
The effects of a number of small molecules previously reported to be effective in inhibiting replication of related viruses were evaluated on replication of the Zika virus using an immunofluorescence readout for viral protein expression. Molecules tested included Ivermectin 18898-1G; Mycophenolic acid M3536-50MG; Brequinar SML0113-5MG; Sodium Oxamate O2751-5G; Chloroquine C6628-25G; Hydroxychloroquine H0915-5MG; and Lanatoside C L2261-100MG.
Cells: Vero cells (ATCC, CCL-81) were cultured in complete Dulbecco's Modified Eagle Media (Sigma) with 10% FBS (Invitrogen) and 2 mM L-glutamine (Invitrogen).
Viruses: Zika virus strain MR766 was kindly provided by Dr. Robert Tesh at the World Reference Center for Emerging Viruses and Arboviruses at the University of Texas Medical Branch in Galveston Tex. MR766 was obtained originally from a Rhesus macaque in Uganda in 1947. Viruses were propagated in Vero cells (ATCC) (Dick et al., 1952) and the titer determined by standard plaque assays and immunofluorescence imaging assays for E protein expression.
Infection assays: Vero cells were plated the night before in a 384-well plate format. The following day the cells were infected with ZIKV MR766 at an MOI of 0.3-0.5 in the presence of the indicated compounds or the DMSO control (v/v). 48 hr post-infection the cells are fixed with formalin, permeabilized with 0.1% Triton-X100 and immunostained using the 4G2 monoclonal antibody against the E protein. The cells were then incubated with an Alexa Fluor 488 goat anti-mouse secondary and stained for DNA with Hoechst 33342. The cells were imaged on an automated Image Express Micro (IXM) microscope at 4× magnification. Images were analyzed using the MetaXpress software program to determine the total cells per well, and the percentage of infected cells in each well.

Compound | effect on replication of Zika virus (percent infected cells, FIG. 1) | stopping replication of the virus (FIG. 2) (Vero cells infected 48 h with ZIKV MR766, Lanatoside 6 nM vs DMSO added at time of infection)
22,23-dihydroavermectin B1a+22,23-dihydroavermectin B1b [ivermectin] | significant effect | –
CC(=O)O[C@H]1C[C@H](O[C@H]2[C@@H](O)C[C@H](O[C@H]3[C@@H](O)C[C@H](O[C@H]4CC[C@@]5(C)[C@H](CC[C@@H]6[C@@H]5C[C@@H](O)[C@]5(C)[C@@H](C7=CC(=O)OC7)CC[C@]65O)C4)O[C@@H]3C)O[C@@H]2C)O[C@H](C)[C@H]1O[C@@H]1O[C@H](CO)[C@@H](O)[C@H](O)[C@H]1O [Lanatoside C, 3β-[4-O-β-D-Glycopyranosyl-4-O-(3-O-acetyl-β-D-digitoxopyranosyl)-4-O-β-D-digitoxopyranosyl-β-D-digitoxopyranosyl]-12β,14-dihydroxy-5β,14β-card-20(22)-enolid] | significant effect | effective at stopping replication of the virus
NC(=O)c1ncn([C@@H]2O[C@H](CO)[C@@H](O)[C@H]2O)n1 [ribavirin, 1-[(2R,3R,4S,5R)-3,4-dihydroxy-5-(hydroxymethyl)oxolan-2-yl]-1H-1,2,4-triazole-3-carboxamide] | significant effect | –
